According to paper PMC12040169 (PLOS Biology, 2025):

Assay: in vitro
Details: human, hela cells, % viability

Structure (SMILES) | viability at 28.5 h, 10 µM
c1nc(NCCCN2CCOCC2)c2c3c(sc2n1)CCCCC3 [CBK268236] | 91.2%
O=C(Nc1ccccc1-n1cnnn1)c1ccccc1Cl [CBK287994] | 95%
Nc1ncc(-c2ccccc2O)nc1-c1ccc(O)cc1 [CBK115548] | 78.5%
COc1ccc(-c2cnc(NCC3CC3)c(C(=O)NCc3ccco3)c2)cc1 [CBK076283] | 96.3%
O=C(/C=C/c1ccc2c(c1)OCO2)Nc1ccc(S(=O)(=O)Nc2cnc3ccccc3n2)cc1 [CBK265445] | 86.9%
Cn1ccnc1C(NC(=O)C1CCCC1)c1ccc(F)c(F)c1 (stereo not shown) [CBK283784] | 97%
COC(=O)c1cc(C#N)c(=O)n(CC(O)COCc2ccco2)c1 (stereo not shown) [CBK305718] | 94.7%
CCc1nc(-c2ccc(N(C)C)nc2)n(C)n1 [CBK306897] | 90.6%
CN1CCN(C(=O)c2cccc(NS(=O)(=O)c3cc(Cl)sc3Cl)c2)CC1 [CBK038966] | 96.2%
O=C(NCC1COc2ccccc2O1)c1ccc2[nH]ccc2c1 (stereo not shown) [CBK149054] | 91.2%
Cc1ccc2cc(S(=O)(=O)NCCCC(=O)O)ccc2c1 [CBK299818] | 95.8%
O=C(Nc1nnn[nH]1)C1(c2ccc([N+](=O)[O-])cc2)CCCC1 [CBK267237] | 93.7%
COc1ccc(CCC(=O)Nc2ccccc2N2CCCNCC2)cc1 [CBK024286T] | 101%
Nc1ncc(-c2occc2C=O)nc1-c1ccc(F)c(Cl)c1 [CBK064005] | 101%
CN1CCN(CCC(=O)N/N=C/c2ccc(O)cc2O)CC1 [CBK262849] | 94.2%
CC1CCN(c2nnnc3c2sc2nc(N4CCOCC4)c4c(c23)CC(C)(C)SC4)CC1 [CBK268062] | 90.4%
Cc1c(-c2ccnc(N)n2)nnn1-c1ccc(Cl)cc1Cl [CBK018733] | 65.5%
O=S(=O)(c1cc(Cl)sc1Cl)N1CCCCC1CO (stereo not shown) [CBK051422] | 87.2%
CC1(C)CC(=O)C(=CNCC(N)=O)C(=O)C1 [CBK262520] | 87.2%
Cc1ccc(C(=O)NCCNS(=O)(=O)c2ccccc2)cc1 [CBK264145] | 88.8%
CCOc1cccc(N2C(=O)c3cc(Br)ccc3NC2c2ccc(OC)c(OC)c2)c1 (stereo not shown) [CBK074502] | 88.4%
CC(C)NC(=O)N1CCC[C@@H](O)[C@H](NC(=O)c2ccc(OCc3ccccc3)cc2)C1 [CBK289063] | 106%
CCCCN(C(=O)c1cc(C)nc2ccccc12)c1ccccc1 [CBK296926] | 89.9%
CCCCNC(=S)N[C@H]1CC[C@@]2(C3=CC=CC4C=CC=CC34)CCN(C)[C@H]2C1 (stereo partly shown) [CBK003610C] | 101%
Cc1cc(C(=O)N2CCCC(c3ccc(Cc4ccc(Cl)cc4)cn3)C2)nc(N(C)C)n1 (stereo not shown) [CBK286036] | 116%
CN(C)C(=O)c1ccc(-c2ccc(COC3CCN(C(=O)Cc4ccc(F)cc4)CC3)c(S(C)(=O)=O)c2)cc1 [CBK155963] | 96.1%
CN1CCC(N(C2CC2)S(=O)(=O)c2ccc(NC(=O)C(C)(C)C)cc2)CC1 [CBK021115] | 99%

Structure (SMILES) | viability at 28.5 h, 10 µM
C(=N\c1ccc(Cc2ccncc2)cc1)/c1ccc(/C=N/c2ccc(Cc3ccncc3)cc2)cc1 [CBK262137] | 97%
CCOC(=O)c1cn(CC)c2cc(N3CCCC3)c(F)cc2c1=O [CBK307169] | 101%
CCCn1nc(C)cc1NC(=O)c1ncoc1-c1ccc(F)cc1 [CBK282361] | 88.7%
CCCCSc1nnc2nc(C)cc(C)n12 [CBK027588] | 98.2%
COC(=O)c1ccccc1NC(=O)CNC(=O)c1ccc(Cl)cc1Cl [CBK267860] | 105%
Cc1ccc2ncnc(NCCCCCC(=O)O)c2c1 [CBK287256] | 91.4%
Cc1cc(C)n(CC(C)CNC(=O)CCCN(C)C)n1 (stereo not shown) [CBK304831] | 93%
Cc1n[nH]c(C)c1CC(=O)N1CCCC(c2cc3ccccc3cn2)C1 (stereo not shown) [CBK285018] | 103%
CC1=NN(c2nc(-c3ccc(Br)cc3)cs2)C(=O)C1/N=N/c1ccc(C(=O)O)cc1 (stereo not shown) [CBK262435] | 86.7%
O=C(NCc1cccs1)OCc1ccccc1 [CBK008074] | 96.6%
COc1cccc(NC(=O)N[C@H]2CCN3C(=O)[C@@H](Cc4ccccc4)NC(=O)[C@H]23)c1 [CBK289230] | 94.5%
N#CCCN(C(=O)NCc1cccnc1)C1CCCCC1 [CBK156355] | 104%
CCCSc1nnc(-c2ccccc2NC(=O)CC)c(O)n1 [CBK265081] | 92.8%
CC(NC(=O)C1CCN(Cc2cccs2)CC1)c1ccc(F)cc1 (stereo not shown) [CBK148041] | 101%
O=C(Nc1cccc(F)c1)N1CCC(Cc2cccnc2)CC1 [CBK306369] | 87.3%
O=C(CC1Oc2ccccc2NC1=O)Nc1ccc2c(c1)CN(Cc1ccccc1)C2 (stereo not shown) [CBK285991] | 88%
Cc1noc(C)c1NC(=O)N(Cc1ccc2ccccc2c1)CC1CCNCC1 [CBK049774] | 110%
O=C1N/C(=N/N=C\c2cccc([N+](=O)[O-])c2)SC1Cc1ccc(Br)cc1 (stereo not shown) [CBK263125] | 101%
CNCCOc1ccccc1O [CBK023215C] | 99.8%
COC(=O)Cn1c(-c2ccc(F)cc2)cc2cccnc21 [CBK282763] | 91.5%
COCc1nc2n(n1)CC(NC(C)C(C)OCc1ccccc1)CC2 (stereo not shown) [CBK304724] | 95.8%
COc1ccccc1-c1nnc(SCc2cccc(C(=O)O)c2)[nH]1 [CBK269952] | 85.3%
CC(C)c1ccc(S(=O)(=O)N2CC3CC2CO3)cc1 (stereo not shown) [CBK050999] | 97.3%
Cn1nc([N+](=O)[O-])nc1Sc1nnnn1-c1ccc(C(=O)O)cc1 [CBK266961] | 109%
O=C(Nc1cccc(F)c1)N(CCO)Cc1cccnc1 [CBK304860] | 104%
CCn1c(S)nnc1CNC(=O)c1ccc(Cl)cc1Cl [CBK267152] | 94.3%
COc1cccc(/C=N/NC(=O)CCN2CCN(C)CC2)c1O [CBK261499] | 91.3%

Structure (SMILES) | viability at 28.5 h, 10 µM
O=[N+]([O-])c1ccc(CN2CCC(Oc3cncc(OCCN4CCOCC4)n3)C2)cc1 (stereo not shown) [CBK084485] | 95.2%
O=C(O)c1cc2oc3ccccc3c3ccccc3oc2cc1C(=O)Nc1cccc([N+](=O)[O-])c1 [CBK265500] | 99.1%
COc1ccc(N2CCN(c3cc(-c4cccc([N+](=O)[O-])c4)ncn3)CC2)cc1OC [CBK091031] | 86.4%
COC(=O)[C@H](NC(=O)C1CCN(C(=O)OCc2ccccc2)CC1)c1ccccc1 [CBK081466] | 88.1%
CCNC(=O)Nc1ccc2ccc(-c3ccsc3)nc2n1 [CBK070699] | 73.5%
CC(C)(C)c1cc(C(=O)NCC(=O)NCC(=O)O)cc(C(C)(C)C)c1 [CBK262200] | 96%
O=C(Nc1ccncc1)c1cnn(-c2ccc(Cl)cc2)c1C(F)(F)F [CBK107441] | 95.5%
CC1CN(c2ccc(CNc3ncccc3C#N)cn2)CCO1 (stereo not shown) [CBK305957] | 99.5%
O=C(c1cc(-c2ccc(Cl)cc2)[nH]n1)N1CCNCC1 [CBK116548] | 99.5%
CC(C)CN(Cc1cccs1)C(=O)c1cc2n(n1)CCCN(C)C2 [CBK306793] | 102%
CC(C)(C)OC(=O)N1CCC(c2nc3ccc(F)cc3cc2N)CC1 [CBK284658] | 88.9%
CCn1nc(CC(C)C)cc1C(=O)NCCc1cn2cccnc2n1 [CBK306553] | 98.9%
CC(C)(C)C(=O)NCc1ccc(C(=O)CSc2n[nH]c(=O)n2C2CC2)s1 [CBK295653] | 111%
COc1ccc(C(C)N(CCN2CCOCC2)C(=O)NCc2cccc3ccccc23)cc1OC (stereo not shown) [CBK158984] | 96.4%
Cc1cn([C@H]2C[C@@H](O)[C@@H](CO)O2)c(=O)n(CCC#N)c1=O [CBK201322] | 98.4%
O=C(C1CC1)N1CC(n2nc(-c3cccs3)ccc2=O)C1 [CBK284650] | 85.1%
CCc1nc2ccc(C(=O)N3CCNC(=O)C3)cn2c1N(C)C(=O)COc1ccccc1 [CBK145871] | 107%
CCc1cccc(CC)c1NC(=O)CN(c1cccc(Cl)c1Cl)S(C)(=O)=O [CBK265934] | 103%
O=C(CCN1C(=O)c2cccc3cccc(c23)C1=O)N1CCN(Cc2ccc3c(c2)OCO3)CC1 [CBK074420] | 96.2%
O=C(Nc1ccccc1)O[C@@H]1CO[C@H]2[C@@H]1OC[C@@H]2NC(=O)C1CC1 [CBK289464] | 88%
CC(C(=O)NCCN1CCOCC1)N1c2cccc3cccc(c23)S1(=O)=O (stereo not shown) [CBK269911] | 91.2%
CC(Cc1ccccn1)NC(=O)C1CC2C=CC1C21CC1 (stereo not shown) [CBK282070] | 90.7%
Cc1n[nH]nc1C(=O)N(C)CC(C)Oc1ccc(Cl)c(Cl)c1 (stereo not shown) [CBK306173] | 85.2%
c1ccc(CSc2ccc3nnc(-c4ccncc4)n3n2)cc1 [CBK287625] | 94.4%
Cc1sc2ncnc(SCC(=O)Nc3sc4c(c3C#N)CCCC4)c2c1-c1ccccc1 [CBK265938] | 93.3%
